{
  "source": "patent US9914760B2",
  "about": "“Methods of identifying, isolating and using odorant and aroma receptors” (Firmenich SA, priority 2013, dated 2018)",
  "experiment_in_all_cases": "cell-based cAMP assay (HTRF), HEK293T co-transfected with Gαolf",
  "key": {"Olfr746": {"system": "Olfr746", "design": "species or system mouse", "settings": "increasing concentrations; FIG. 5E", "text": "(§1) The activity of candidate mouse receptors Olfr740 (SEQ ID NO: 1 and SEQ ID NO: 2), Olfr743 (SEQ ID NO: 5 and SEQ ID NO: 6), and Olfr746 (SEQ ID NO: 37 and SEQ ID NO: 38) to both indole and skatole malodors were confirmed in cell-based cAMP assays. In FIGS. 5A and 5B, FLAG Rho-tagged (SEQ ID 18) Olfr743 (SEQ ID NO: 6) and Olfr740 (SEQ ID NO: 2) cDNA sequences were co-transfected with Gαolf (SEQ ID NO: 21) and exposed to increasing concentrations of indole (left) or skatole (right). FIGS. 5C and 5D are repeat experiments showing similar activity of Olfr740 (SEQ ID NO: 2) with Olfr743 (SEQ ID NO: 6) with indole and skatole. In FIG. 5E, the FLAG Rho-tagged (SEQ ID 18) Olfr746 (SEQ ID NO: 38) cDNA sequence was co-transfected with Gαolf (SEQ ID NO: 21) and exposed to increasing concentrations of indole or skatole. Odorant-induced activity was detected by measuring cAMP levels in the cytosol using the HTRF approach (CisBio kit). […] Co-transfection of HEK cells with Gαolf (SEQ ID NO: 21) alone (no receptor) were used as controls for non-specific activity (control). Activity is defined as the baseline corrected HTRF ratios normalized to the highest signal in the experiment. […] All three receptors show specific dose dependent activity to the malodor compounds and, as such, validate the process for identifying receptors for these compounds. Mouse receptors Olfr740 (SEQ ID NO: 1 and SEQ ID NO: 2) and Olfr743 (SEQ ID NO: 5 and SEQ ID NO: 6) were identified from isolated olfactory neurons that responded to both indole and skatole. Mouse receptor Olfr746 (SEQ ID NO: 37 and SEQ ID NO: 38) was identified in silico by database mining using Olfr740 (SEQ ID NO: 2) and Olfr743 (SEQ ID NO: 6) as query sequences. The receptors are modified at their N-terminus with the FLAG tag and the first 20 amino acids of the bovine rhodopsin receptor (SEQ ID 18), transiently expressed in HEK 293T cells, and stimulated separately with indole and skatole to confirm their identity as bona fide indole/skatole receptors. Co-expression of the human G alpha subunit Gαolf (SEQ ID NO: 21) activates the Gs transduction pathway that leads to an internal cAMP increase upon binding to the appropriate ligand."}, "Olfr740": {"system": "Olfr740", "design": "species or system mouse", "settings": "increasing concentrations; FIGS. 5A-5D", "text": "as §1"}, "Olfr743": {"molecular_target": "Olfr743 (Mus musculus, UniProt L7N1Y2)", "sequence (P38405 2-381)": "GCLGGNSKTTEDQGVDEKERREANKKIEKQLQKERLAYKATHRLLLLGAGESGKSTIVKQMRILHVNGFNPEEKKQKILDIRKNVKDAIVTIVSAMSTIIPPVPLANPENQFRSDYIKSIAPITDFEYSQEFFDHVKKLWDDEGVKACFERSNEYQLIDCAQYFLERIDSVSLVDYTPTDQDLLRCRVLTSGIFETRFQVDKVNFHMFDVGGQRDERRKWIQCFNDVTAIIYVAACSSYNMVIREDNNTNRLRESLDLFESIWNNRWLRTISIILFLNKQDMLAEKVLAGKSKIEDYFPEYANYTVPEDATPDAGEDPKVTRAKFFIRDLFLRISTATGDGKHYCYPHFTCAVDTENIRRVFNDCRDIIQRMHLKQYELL", "sequence (L7N1Y2 entry or part of it)": "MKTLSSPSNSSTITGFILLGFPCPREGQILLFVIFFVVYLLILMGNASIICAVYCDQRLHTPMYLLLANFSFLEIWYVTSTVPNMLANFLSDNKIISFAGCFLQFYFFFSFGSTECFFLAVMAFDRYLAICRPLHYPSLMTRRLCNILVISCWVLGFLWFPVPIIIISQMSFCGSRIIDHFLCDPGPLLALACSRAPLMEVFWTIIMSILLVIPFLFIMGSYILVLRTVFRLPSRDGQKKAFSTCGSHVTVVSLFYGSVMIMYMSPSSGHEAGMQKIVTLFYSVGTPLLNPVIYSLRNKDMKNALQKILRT", "settings": "for receptor activity (cAMP, HTRF): increasing concentrations, FIGS. 5A-5D", "text": "as §1\nOnce identified using the procedure outlined herein, the resulting malodor receptor cell lines can be used to screen chemical libraries for compounds that modulate their activity and possibly human perception. This experiment was performed under the same conditions as in Example 4. Cells transfected with Rho-tagged (SEQ ID NO: 18) Olfr743 (SEQ ID NO: 6) were exposed to increasing concentrations of indole in the presence or absence of 300 μM 2-actetonaphthone. […] In the presence of the antagonist compound, a rightward shift of in the dose-response curve is observed resulting in a 4 fold increase in the EC50 to indole. Activity is defined as the baseline corrected HTRF ratios normalized to the highest signal in the experiment."}},
  "data": [
    {"compound": "Cc1c[nH]c2ccccc12", "note": "[skatole, 3-methyl indole]", "values": [
      {"measurement": "receptor activity (cAMP, HTRF)", "setting": "Olfr746", "value": "dose-dependent increase of receptor activity"},
      {"measurement": "receptor activity (cAMP, HTRF)", "setting": "Olfr740", "value": "dose-dependent increase of receptor activity"},
      {"measurement": "receptor activity (cAMP, HTRF)", "setting": "Olfr743", "value": "dose-dependent increase of receptor activity"}
    ]},
    {"compound": "c1ccc2[nH]ccc2c1", "note": "[indole]", "values": [
      {"measurement": "receptor activity (cAMP, HTRF)", "setting": "Olfr746", "value": "dose-dependent increase of receptor activity"},
      {"measurement": "receptor activity (cAMP, HTRF)", "setting": "Olfr740", "value": "dose-dependent increase of receptor activity"},
      {"measurement": "EC50", "setting": "Olfr743; EC50, indole alone, absence of 2-acetonaphthone", "value": 54, "unit": "µM"},
      {"measurement": "EC50", "setting": "Olfr743; EC50, indole in the presence of 300 μM 2-acetonaphthone", "value": 206, "unit": "µM"},
      {"measurement": "receptor activity (cAMP, HTRF)", "setting": "Olfr743", "value": "dose-dependent increase of receptor activity"}
    ]}
  ]
}
